According to patent US4499187A, “Method for evaluating mutagenicity” (Mobil Oil Corporation, priority 1984, dated 1985):

How the values were obtained:
[1] = system: Salmonella typhimurium tester strain TA98; assay: Modified Ames test with induced hamster liver S9 (TA98 revertants/plate); assay type: cell-based; conditions: 2 ug per plate
Procedure: (§1) The hydrocarbon mixture to be assayed is extracted with an equal volume of DMSO five times, and the extracts are combined. The combined extract, which serves as surrogate for the hydrocarbon itself, is assayed using Salmonella typhimurium tester strain TA98 together with Aroclor 1254-induced rat liver S9. Prior to use, the rat liver S9 homogenate, obtained from Litton Bionetics, Kensington, Md., was stored at -80° C., and thawed on ice for 4 hours prior to use.
The assay is conducted by first introducing into a series of sterile capped culture tubes up to about eight different doses of the combined extract. The doses, usually in the range of 10 to 75 microliters, are selected to delimit the linear portion of the doseresponse curve. Duplicate or triplicate tubes are prepared for each dose level. This is followed by 0.5 ml S9 mix containing 400 μl S9, 8 μM MgCl2, 33 μM KCl, 5 μM glucose-6-phosphate, 4 μM NADP and 100 μM sodium phosphate (pH 7.4), and 0.1 ml Salmonella typhimurium broth culture (1×10^9 cells/ml). The cultures are incubated at 37° C. with agitation for 20 minutes, following which top agar (0.6% agar, 0.5% NaCl, 0.5 mM histidine-biotin) is added. The tubes are vortexed to ensure adequate mixing and the contents overlaid on 30 ml Vogel-Bonner minimal media plates. Plates are incubated inverted at 37° C. in the dark and revertant colonies are counted 48 hours later. […]

[2] = system: Salmonella typhimurium tester strain TA98; assay: Modified Ames test with Aroclor 1254-induced rat liver S9 on DMSO extract (specific mutagenic activity, revertants); assay type: cell-based
Procedure: as §1
The assay is conducted by first introducing into a series of sterile capped culture tubes up to about eight different doses of the combined extract. The doses, usually in the range of 10 to 75 microliters, are selected to delimit the linear portion of the doseresponse curve. Duplicate or triplicate tubes are prepared for each dose level. […] Plates are incubated inverted at 37° C. in the dark and revertant colonies are counted 48 hours later.
Spontaneous reversion rates (47±8.5) and negative (solvent) control rates (47±8.5) were determined for all tests. […]
Specific mutagenic activity is assessed from the slope of the linear portion of the dose response curve that is obtained, and may be reported as revertants per μl of extract. […]

Compound: Nc1ccc2cc3ccccc3cc2c1 [2-aminoanthracene]
- TA98 Revertants/Plate, 400 ul Hamster S9 ([1]; 400 ul hamster S9): 639 Revertants/Plate
- TA98 Revertants/Plate, 400 ul Hamster S9 + 2xNADP ([1]; 400 ul hamster S9 + 2xNADP (8 mM)): 977 Revertants/Plate
- TA98 Revertants/Plate, 400 ul Rat S9 ([2]; 2 ug per plate, 400 ul rat S9): 313 Revertants/Plate
- revertants (positive control) ([2]; 2 μg/plate, TA98, rat liver S9): 441±285 revertants
